The record followed here is patent US20020028938A1, “Prostaglandin endoperoxide H synthase biosynthesis inhibitors” (priority 1997, published 2002).

The target of data set [1] is T1, recombinant human Cox-1 (r-hu Cox1) (Homo sapiens, UniProt P23219).
T1 construct: made in house; host or cells: baculovirus/Sf9 insect cells (microsomes)
Put plainly: Recombinant human PGHS-1 enzyme assay (RHUCX1). To be noted: for IC50: read-out: RHUCX1 IC50 (parenthetical value). It counts as biochemical. Summed up: (§1)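 PGE2 by EIA (optical density) → % inhibition vs control-group mean → IC50 from linear regression.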

In data set [2] the target is T2, Human Whole Platelet Cyclooxygenase-1 (Homo sapiens, UniProt P23219).
T2 construct: from tissue; host or cells: human blood: isolated platelets (A4) or heparinised whole blood (A9)
Put plainly: Human Whole Platelet Cyclooxygenase-1 assay (HWPX). In kind it is cell-based. The conditions noted are these: for IC50: read-out: HWPX IC50 (parenthetical value). The method, then: Blood from normal healthy volunteers is collected into tubes containing ACD (acid citrate dextrose) as the anticoagulant. This blood is centrifuged at 175×g to prepare platelet rich plasma. The platelet rich plasma is then centrifuged at 100×g to pellet the white blood cells, leaving the platelets in the supernatant. The supernatant is layered on a cushion of 0.7 mL of 10% bovine serum albumin in Tyrodes solution (Gibco; Grand Island, N.Y.) and then centrifuged at 1000×g. The resulting supernatant from this centrifuigation is then removed and 11 mL of Tyrodes solution is added to the remaining pellet of platelets. The platelets are then aliquoted at 120 μl into a 96 well plate. Experimental compounds are added and allowed to pre-incubate for 10 minutes. At the end of this pre-incubation period, the calcium ionophore A23187 is added to a final concentration of 8.8 μM and the incubation is continued for ten minutes. The reaction is stopped by adding cold 6 mM EDTA, the incubation mixture is centrifuged at 220×g, and the supernatants are then analyzed for thromboxane using a commercial kit from Cayman Chemical (Ann Arbor, Mich.

Data set [3] has as its target T3, human amnionic whole cell cyclooxygenase-2 (WISH cells) (Homo sapiens, UniProt P35354).
T3 construct: endogenous in cells; host or cells: human amnionic WISH cells, induced with IL-1beta
T3 sequence (P35354 18-604): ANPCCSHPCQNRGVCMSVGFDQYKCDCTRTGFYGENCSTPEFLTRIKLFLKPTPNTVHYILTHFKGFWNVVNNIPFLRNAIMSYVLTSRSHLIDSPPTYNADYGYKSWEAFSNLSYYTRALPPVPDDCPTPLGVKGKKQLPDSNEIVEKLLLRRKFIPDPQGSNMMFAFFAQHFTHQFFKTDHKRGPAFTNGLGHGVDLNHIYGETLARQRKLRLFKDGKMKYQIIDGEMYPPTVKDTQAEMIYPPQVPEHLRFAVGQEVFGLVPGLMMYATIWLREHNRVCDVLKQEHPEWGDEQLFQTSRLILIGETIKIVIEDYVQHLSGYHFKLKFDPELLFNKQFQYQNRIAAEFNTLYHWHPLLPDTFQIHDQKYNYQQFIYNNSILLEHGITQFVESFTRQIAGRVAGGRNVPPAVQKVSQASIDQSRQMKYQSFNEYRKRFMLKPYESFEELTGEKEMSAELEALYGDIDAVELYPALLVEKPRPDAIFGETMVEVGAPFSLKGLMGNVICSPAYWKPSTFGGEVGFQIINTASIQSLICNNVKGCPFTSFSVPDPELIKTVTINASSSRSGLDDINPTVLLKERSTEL
Put plainly: IL-1β induced PGE2 production in WISH cells. In kind it is cell-based. The conditions noted are these: for IC50: read-out: Wish IC50 (parenthetical value). The procedure, abridged: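 PGE2 was quantified by enzyme immunoassay (optical density read) against standards made up in the matching medium. WISH cells at 80% confluence, washed and placed in serum-free Neuman-Tytell medium, received 5 ng/ml IL-1β plus test compound or DMSO vehicle (0.01% v/v).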

In data set [4] the target is T4, recombinant human Cox-2 (r-hu Cox-2) (Homo sapiens, UniProt P35354).
T4 construct: made in house; host or cells: baculovirus/Sf9 insect cells (microsomes)
T4 sequence (P35354 18-604): T3 sequence (P35354 18-604)
The experiment in a line: Recombinant human PGHS-2 enzyme assay (RHUCX2). In kind it is biochemical. To be noted: for IC50: read-out: RHUCX2 IC50 (parenthetical value). The procedure, abridged: as §1

The subject of data set [5] is air pouch prostaglandin biosynthesis (Cox-2). The experiment in a line: Carrageenan induced air pouch prostaglandin biosynthesis model (CAP). It counts as in vivo, rat. The conditions noted are these: 3 mpk, rat. The method, then: To compare the mean responses of the treatment groups, analysis of variance was applied. Percent inhibition values were determined by comparing the individual treatment mean values to the mean of the control group. Linear regression was used to estimate IC50's/ED50's in appropriate assays.
Carrageenan induced air pouch prostaglandin biosynthesis model (CAP) Air pouches are formed in the backs of male Sprague Dawley rats by injecting 20 mL of sterile air on day 0. Three days later the pouch was reinflated with an additional 10 mL of sterile air. On day 7, 1 mL of saline containing 0.2 % lambda carrageenan (Sigma Chemical Co.) is injected into the pouch to induce the inflammatory reaction that is characterized by the release of prostaglandins. Test compounds are dosed at 0.1 to 10 mg/kg 30 minutes prior to carrageenan. Four hours after the carrageenan injection the pouch is lavaged and levels of prostaglandins are determined by enzyme immuno-assay using commercially available kits. […] Values for Cox-2 inhibition that are parenthetical indicate ED50 values.

[6] abbreviates: read-out: Wish % Inhib. at Dose.
[7] abbreviates: read-out: RHUCX1 % Inh. at Dose.
Where [8] appears, read: read-out: RHUCX2 % Inh. at Dose.

T2 sequence (P23219 24-599): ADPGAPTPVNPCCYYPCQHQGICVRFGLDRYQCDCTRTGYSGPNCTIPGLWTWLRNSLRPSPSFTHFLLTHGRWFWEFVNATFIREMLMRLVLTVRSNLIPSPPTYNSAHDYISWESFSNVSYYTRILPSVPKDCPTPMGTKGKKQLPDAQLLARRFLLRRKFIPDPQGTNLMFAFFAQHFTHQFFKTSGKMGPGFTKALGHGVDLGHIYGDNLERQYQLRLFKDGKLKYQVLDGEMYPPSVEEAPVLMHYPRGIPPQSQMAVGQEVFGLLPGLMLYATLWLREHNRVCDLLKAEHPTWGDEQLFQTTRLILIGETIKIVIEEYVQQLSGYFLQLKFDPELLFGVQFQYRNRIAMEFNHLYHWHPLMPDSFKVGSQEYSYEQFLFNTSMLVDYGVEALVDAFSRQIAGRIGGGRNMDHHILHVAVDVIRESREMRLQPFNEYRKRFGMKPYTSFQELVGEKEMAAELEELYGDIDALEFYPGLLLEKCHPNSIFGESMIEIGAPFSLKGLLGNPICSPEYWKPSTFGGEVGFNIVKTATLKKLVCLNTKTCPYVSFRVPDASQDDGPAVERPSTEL
T1 sequence (P23219 24-599): as above

Consider `C/C(=C\Cn1ncc(-c2ccc(S(N)(=O)=O)cc2)c(-c2ccc(F)cc2)c1=O)C(F)(F)F` [Example 154], for which the melting point lay in the range of 155 to 157 °C. The IC50 in data set [1] worked out at 126 nM. Besides, in data set [2] (0.1 μM, read-out: HWPX % Inhib. at Dose), the inhibition at 0.1 µM came out at 48%. Further, the inhibition at 0.3 µM in data set [2] (0.3 μM, read-out: HWPX % Inhib. at Dose) was 81%. Also, in data set [3] (setting [6]), the inhibition at 0.01 µM was determined as 69% and the inhibition at 0.1 µM came out at 100%. Besides, the IC50 in data set [4] came to 18 nM.
`CS(=O)(=O)c1ccc(-c2cnn(-c3cccc(Cl)c3)c(=O)c2-c2ccc(F)cc2)cc1` [Example 165] had a melting point of 232 to 235 °C. Besides, in data set [1] (setting [7]), the inhibition at 100 µM worked out at 0%. For the same compound, the IC50 in data set [2] came to 1.9 µM. Besides, in data set [3], the IC50 is 30 nM. Also, the concentration for half-maximal inhibition (IC50) in data set [4] came out at 1080 nM.
Compound `CS(=O)(=O)c1ccc(-c2cnn(-c3ccc(F)cc3)c(=O)c2C2CCCCC2)cc1` [Example 228, 2-(4-Fluorophenyl)-4-cyclohexyl-5-[4-(methylsulfonyl)phenyl]-3(2H)-pyridazinone] showed a melting point of 231 to 233 °C. Also, the inhibition at 100 µM in data set [1] (setting [7]) was 7%. The half-maximal inhibitory concentration (IC50) in data set [2] was determined as 19.6 µM. Further, the concentration for half-maximal inhibition (IC50) in data set [3] is 86 nM. The IC50 in data set [4] turned out to be 209 nM.
Turning to `Cc1cc(-c2c(-c3ccc(S(C)(=O)=O)cc3)cnn(-c3ccc(F)c(Cl)c3)c2=O)ccc1F` [Example 247, 2-(3-Chloro-4-fluorophenyl)-4-(4-fluoro-3-mehylphenyl)-5-[4-(methylsulfonyl)phenyl]-3(2H)-pyridazinone], the melting point was in the range of 207 to 208 °C. Also, the inhibition at 1 µM in data set [1] (1 μM, read-out: RHUCX1 % Inh. at Dose) turned out to be 55%. In addition, in data set [1] (setting [7]), the inhibition at 10 µM came to 72%. In data set [2], the IC50 worked out at 7.76 µM. The IC50 in data set [3] stood at 20 nM. In data set [4] (setting [8]), the inhibition at 0.1 µM stood at 51% and the inhibition at 1 µM was 71%. The inhibition at 10 µM in data set [4] (10 μM, read-out: RHUCX2 % Inh. at Dose) was found to be 99%.
The compound `CC(C)(C)COc1c(-c2ccc(S(C)(=O)=O)cc2)cnn(-c2cccc(Cl)c2)c1=O` [Example 338, 2-(3-Chlorophenyl)-4-(2,2-dimethylpropoxy)-5-[4-(methylsulfonyl)phenyl]-3(2H)-pyridazinone] gave a melting point of 151 to 153 °C. Moreover, the inhibition at 100 µM in data set [1] (setting [7]) was found to be 0%. Also, the concentration for half-maximal inhibition (IC50) in data set [2] was 14.9 µM. In addition, the IC50 in data set [3] is 4 nM. In data set [4] (setting [8]), the inhibition at 0.1 µM is 83% and the inhibition at 1 µM is 100%.
`CS(=O)(=O)c1ccc(-c2cnn(-c3cccc(Cl)c3)c(=O)c2C2CCCCC2)cc1` [Example 368, 2-(3-Chlorophenyl)-4-cyclohexyl-5-[4-(methylsulfonyl)phenyl]-3(2H)-pyridazinone] yielded a melting point of 85 to 90 °C. For the same compound, the inhibition at 100 µM in data set [1] (setting [7]) worked out at 13%. In addition, the IC50 in data set [2] is 13.7 µM. Further, the inhibition at 0.01 µM in data set [3] (setting [6]) is 33%. Also, the inhibition at 0.03 µM in data set [3] (0.03 μM, read-out: Wish % Inhib. at Dose) was 64%. Further, in data set [4] (setting [8]), the inhibition at 0.1 µM was 65% and the inhibition at 1 µM amounted to 96%.
Take `Cc1ccc(-c2c(-c3ccc(S(C)(=O)=O)cc3)cnn(-c3cccc(Cl)c3)c2=O)cc1` [Example 370, 2-(3-Chlorophenyl)-4-(4-methylphenyl)-5-[4-(methylsulfonyl)phenyl]-3(2H)-pyridazinone]: the melting point fell in the range of 222 to 224 °C. Besides, the inhibition at 100 µM in data set [1] (setting [7]) came to 8%. Further, in data set [2], the IC50 was 8.4 µM. For the same compound, the 50% inhibitory concentration (IC50) in data set [3] came to 20 nM. Besides, the IC50 in data set [4] turned out to be 48 nM.
On to `CC(C)CCc1c(-c2ccc(S(C)(=O)=O)cc2)cnn(-c2ccc(F)cc2)c1=O` [Example 378], for which the “CAP % Inhib. @ 3 mpk” value in data set [5] is 59%.
`CC(C)(C)COc1c(-c2ccc(S(N)(=O)=O)c(F)c2)cnn(CC(F)(F)F)c1=O` [Example 381, 2-(2,2,2-Trifluoroethyl)-4-(2,2-dimethylpropoxy)-5-[3-fluoro-4-(aminosulfonyl)phenyl]-3(2H)-pyridazinone] returned a melting point of 144 to 145 °C. In addition, in data set [1] (setting [7]), the inhibition at 100 µM is 0%. For the same compound, the inhibition at 30 µM in data set [2] (30 μM, read-out: HWPX % Inhib. at Dose) stood at 31%. The inhibition at 100 µM in data set [2] (100 μM, read-out: HWPX % Inhib. at Dose) stood at 91%. For the same compound, the IC50 in data set [3] is 75 nM. Further, the half-maximal inhibitory concentration (IC50) in data set [4] was 188 nM.
As to `Cc1cc(-c2c(-c3ccc(S(N)(=O)=O)cc3)cnn(-c3cccc(Cl)c3)c2=O)ccc1F` [Example 391, 2-(3-Chlorophenyl)-4-(4-fluoro-3-methylphenyl)-5-[4-(aminosulfonpl)phenyl]-3(2h)-pyridazinone], in data set [5], the “CAP % Inhib. @ 3 mpk” value amounted to 61%.
Compound `NS(=O)(=O)c1ccc(-c2cnn(-c3ccc(F)c(Cl)c3)c(=O)c2-c2ccc(F)cc2)cc1` [Example 401, 2-(3-Chloro-4-fluorophenyl)-4-(4-fluorophenyl)-5-[4-(aminosulfonyl)phenyl]-3(2H)-pyridazinone] had a melting point of 208 to 210 °C. Moreover, the half-maximal inhibitory concentration (IC50) in data set [1] was determined as 753 nM. The IC50 in data set [2] turned out to be 0.32 µM. Besides, in data set [3], the half-inhibitory concentration (IC50) turned out to be 17 nM. For the same compound, in data set [4] (setting [8]), the inhibition at 0.01 µM stood at 48%, the inhibition at 0.1 µM turned out to be 62% and the inhibition at 1 µM is 96%.
As to `CC(C)CCc1c(-c2ccc(S(N)(=O)=O)cc2)cnn(-c2ccc(F)c(F)c2)c1=O` [Example 404, 2-(3,4-Difluorophenyl)-4-(3-methylbutyl)-5-[4-(aminosulfonyl)phenyl]-3(2H)-pyridazinone], the melting point was 171 to 173 °C. Besides, in data set [1] (setting [7]), the inhibition at 10 µM was found to be 47% and the inhibition at 100 µM turned out to be 77%. In data set [2], the IC50 was 0.337 µM. In addition, in data set [3] (setting [6]), the inhibition at 0.01 µM was 58% and the inhibition at 0.1 µM worked out at 96%. In addition, in data set [4] (setting [8]), the inhibition at 0.01 µM came out at 57% and the inhibition at 0.1 µM worked out at 92%.
Turning to `CS(=O)(=O)c1ccc(-c2cnn(-c3cccc(Cl)c3)c(=O)c2OCC2CC2)cc1` [Example 418, 2-(3-Chlorophenyl)-4-cyclopropanemethoxy-5-[4-(methylsulfonyl)phenyl]-3(2H)-pyridazinone], the melting point lay in the range of 158 to 161 °C. For the same compound, the inhibition at 100 µM in data set [1] (setting [7]) was 33%. Moreover, the IC50 in data set [2] was 14.2 µM. The half-inhibitory concentration (IC50) in data set [3] was 250 nM. Moreover, the inhibition at 0.025 µM in data set [4] (0.025 μM, read-out: RHUCX2 % Inh. at Dose) was 53%. In addition, in data set [4] (setting [8]), the inhibition at 0.1 µM came out at 52% and the inhibition at 1 µM turned out to be 85%.
Turning to `CC(C)(O)COc1c(-c2ccc(S(N)(=O)=O)cc2)cnn(-c2ccc(F)c(F)c2)c1=O` [Example 459], the “CAP % Inhib. @ 3 mpk” value in data set [5] amounted to 45%.

One may read the IC50 as the point on the concentration scale where inhibition reaches its midpoint. A word on the melting point: it is the temperature, or range, at which the solid turns liquid.
